How the values were obtained:
SASKR (russian thistle) = experiment: Pre-emergence herbicidal activity, cool season; assay type: in vivo, Salsola kali; details: lowest tested rate with 80% or greater inhibition; rates 300, 100, 30, 10 g/ha; about 14 days
Procedure, shortened: (§1)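 Seeds sown in sterilised fertilised topsoil received surface-applied compound in 50:50 acetone/water, typically at 300, 100, 30 and 10 g/ha, then greenhouse-grown at 30/21° C (warm-season species) or 18/13° C (cool-season species). Percent inhibition versus untreated plants was scored at about 14 days, giving GR80; an asterisk marks activity short of 80% at the top rate.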

[1] = tested on: AGSST (creeping bentgrass); experiment: Pre-emergence herbicidal activity, cool season; assay type: in vivo, Agrostis stolonifera; details: GR80 = lowest tested rate (300, 100, 30, 10 g/ha) with 80% or greater inhibition; approx. 14 days after treating; 18/13° C.
Procedure, shortened: as §1

POLCO (wild buckwheat) = experiment: Pre-emergence herbicidal activity, cool season; assay type: in vivo, Polygonum convolvulus; details: lowest tested rate with 80% or greater inhibition; rates 300, 100, 30, 10 g/ha; about 14 days
Procedure, shortened: (§2)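 Each pot received seeds on sterilized fertilized topsoil, a soil cover, and a surface spray of compound (300–10 g/ha, acetone/water 50:50). Plants grew about 14 days at 30/21 °C (PANMI, DIGSA) or 18/13 °C (ALOMY, POLCO) before inhibition was rated against untreated pots to give GR80.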

AVEFA (wild oat) = experiment: Pre-emergence herbicidal activity, cool season; assay type: in vivo, Avena fatua; details: GR80 = lowest tested rate (300, 100, 30, 10 g/ha) with 80% or greater inhibition; approx. 14 days after treating; 18/13° C.
Protocol: (§3) Tables 5 to 8 summarize results of tests conducted as described below to determine the pre-emergence herbicidal activity, in the form of a GR80 value, of illustrative compounds of this invention. […] Compounds of the invention were typically applied at rates of 300, 100, 30, and 10 g/ha. Where herbicidal activity was evident but 80% inhibition was not achieved at the highest rate tested, an asterisk (*) is shown in the following tables.
(§4) The pre-emergence tests were conducted by the following procedure. Topsoil was sieved to pass through a 1.27 cm screen. Fertilizer was added to the topsoil and the mixture was then sterilized by heating. The topsoil mixture was placed in a pot and compacted to a depth of 1.0 to 1.25 cm from the top of the pot. Seeds of each of several monocotyledonous and dicotyledonous annual plant species were placed on top of the soil. Additional soil was subsequently placed over the seeds to level-fill the pot. A known amount of each test compound dissolved or suspended in an appropriate organic solvent was diluted with a 50:50 mix of acetone and water and applied to the surface of the soil. After treatment the plants were placed in a greenhouse where they received 0.64 cm of overhead irrigation. All subsequent watering consisted of a light overhead mist and/or subirrigation as needed for germination and growth. Tables 5 and 6 below relate to warm season plant species which were placed after pre-emergence treatment in a greenhouse with a 30/21° C. day/night temperature regime. Tables 7 and 8 below relates to cool season plant species placed after pre-emergence treatment in a greenhouse or growth chamber with an 18/13° C. day/night temperature regime.
(§5) Approximately 14 days after planting and treating, the plants were observed and herbicidal efficacy recorded as percent inhibition by comparison with untreated plants.
(§6) The plant species usually regarded as weeds which were utilized in the tests are identified in the tables below according to the following legend, in which “d” indicates a dicotyledonous species and “m” a monocotyledonous species. All monocotyledonous species included in the tests herein are grasses.

[2] = tested on: GALAP (catchweed bedstraw); experiment: Pre-emergence herbicidal activity, cool season; assay type: in vivo, Galium aparine; details: lowest tested rate with 80% or greater inhibition; rates 300, 100, 30, 10 g/ha; about 14 days
Procedure, shortened: as §1

STEME (common chickweed) = experiment: Pre-emergence herbicidal activity, cool season; assay type: in vivo, Stellaria media; details: lowest tested rate with 80% or greater inhibition; rates 300, 100, 30, 10 g/ha; about 14 days
Procedure, shortened: as §1

[3] = tested on: VERPE (creeping speedwell); experiment: Pre-emergence herbicidal activity, cool season; assay type: in vivo, Veronica persicaria; details: lowest tested rate with 80% or greater inhibition; rates 300, 100, 30, 10 g/ha; about 14 days
Procedure, shortened: as §1

SINAR (wild mustard) = experiment: Pre-emergence herbicidal activity, cool season; assay type: in vivo, Sinapis arvensis; details: lowest tested rate with 80% or greater inhibition; rates 300, 100, 30, 10 g/ha; about 14 days
Procedure, shortened: as §1

SETVI (green foxtail) = experiment: Pre-emergence herbicidal activity, cool season; assay type: in vivo, Setaria viridis; details: GR80 = lowest tested rate (300, 100, 30, 10 g/ha) with 80% or greater inhibition; approx. 14 days after treating; 18/13° C.
Procedure, shortened: as §1

[4] = tested on: LAMPU (purple deadnettle); experiment: Pre-emergence herbicidal activity, cool season; assay type: in vivo, Lamium purpureum; details: lowest tested rate with 80% or greater inhibition; rates 300, 100, 30, 10 g/ha; about 14 days
Procedure, shortened: as §1

[5] = tested on: PANMI (wild proso millet); experiment: Pre-emergence herbicidal activity, warm season; assay type: in vivo, Panicum miliaceum; details: GR80 = lowest tested rate (300, 100, 30, 10 g/ha) with 80% or greater inhibition; approx. 14 days after treating; 30/21° C.
Procedure, shortened: as §2

BROTE (downy brome) = experiment: Pre-emergence herbicidal activity, cool season; assay type: in vivo, Bromus tectorum; details: GR80 = lowest tested rate (300, 100, 30, 10 g/ha) with 80% or greater inhibition; approx. 14 days after treating; 18/13° C.
Protocol: as §3, §4, §5, §6

ECHCG (barnyardgrass) = experiment: Pre-emergence herbicidal activity, warm season; assay type: in vivo, Echinochloa crus-galli; details: GR80 = lowest tested rate (300, 100, 30, 10 g/ha) with 80% or greater inhibition; approx. 14 days after treating; 30/21° C.
Procedure, shortened: as §1

PANDI (fall panicum) = experiment: Pre-emergence herbicidal activity, warm season; assay type: in vivo, Panicum dichotomiflorum; details: GR80 = lowest tested rate (300, 100, 30, 10 g/ha) with 80% or greater inhibition; approx. 14 days after treating; 30/21° C.
Protocol: as §3, §4, §5, §6

[6] = tested on: SORHA (johnsongrass (seedling)); experiment: Pre-emergence herbicidal activity, warm season; assay type: in vivo, Sorghum halepense; details: GR80 = lowest tested rate (300, 100, 30, 10 g/ha) with 80% or greater inhibition; approx. 14 days after treating; 30/21° C.
Procedure, shortened: as §1

SETFA (giant foxtail) = experiment: Pre-emergence herbicidal activity, warm season; assay type: in vivo, Setaria faberi; details: GR80 = lowest tested rate (300, 100, 30, 10 g/ha) with 80% or greater inhibition; approx. 14 days after treating; 30/21° C.
Procedure, shortened: as §1

DIGSA (large crabgrass) = experiment: Pre-emergence herbicidal activity, warm season; assay type: in vivo, Digitaria sanguinalis; details: GR80 = lowest tested rate (300, 100, 30, 10 g/ha) with 80% or greater inhibition; approx. 14 days after treating; 30/21° C.
Procedure, shortened: as §2

AMARE (redroot pigweed) = experiment: Pre-emergence herbicidal activity, warm season; assay type: in vivo, Amaranthus retroflexus; details: GR80 = lowest tested rate (300, 100, 30, 10 g/ha) with 80% or greater inhibition; approx. 14 days after treating; 30/21° C.
Procedure, shortened: as §1

ABUTH (velvetleaf) = experiment: Pre-emergence herbicidal activity, warm season; assay type: in vivo, Abutilon theophrasti; details: GR80 = lowest tested rate (300, 100, 30, 10 g/ha) with 80% or greater inhibition; approx. 14 days after treating; 30/21° C.
Protocol: as §3, §4, §5, §6

POROL (common purslane) = experiment: Pre-emergence herbicidal activity, warm season; assay type: in vivo, Portulaca oleracea; details: GR80 = lowest tested rate (300, 100, 30, 10 g/ha) with 80% or greater inhibition; approx. 14 days after treating; 30/21° C.
Procedure, shortened: as §1

ALOMY (blackgrass) = experiment: Pre-emergence herbicidal activity, cool season; assay type: in vivo, Alopecurus myosuroides; details: GR80 = lowest tested rate (300, 100, 30, 10 g/ha) with 80% or greater inhibition; approx. 14 days after treating; 18/13° C.
Procedure, shortened: as §2

[7] = tested on: CIRAR (canada thistle (seedling)); experiment: Pre-emergence herbicidal activity, warm season; assay type: in vivo, Cirsium arvense; details: GR80 = lowest tested rate (300, 100, 30, 10 g/ha) with 80% or greater inhibition; approx. 14 days after treating; 30/21° C.
Procedure, shortened: as §1

LOLMG (annual ryegrass) = experiment: Pre-emergence herbicidal activity, cool season; assay type: in vivo, Lolium multiflorum; details: GR80 = lowest tested rate (300, 100, 30, 10 g/ha) with 80% or greater inhibition; approx. 14 days after treating; 18/13° C.
Protocol: as §3, §4, §5, §6

SOLNI (black nightshade) = experiment: Pre-emergence herbicidal activity, warm season; assay type: in vivo, Solanum nigrum; details: GR80 = lowest tested rate (300, 100, 30, 10 g/ha) with 80% or greater inhibition; approx. 14 days after treating; 30/21° C.
Procedure, shortened: as §1

[8] = tested on: BRAPP (broadleaf signalgrass); experiment: Pre-emergence herbicidal activity, warm season; assay type: in vivo, Brachiaria platyphylla; details: GR80 = lowest tested rate (300, 100, 30, 10 g/ha) with 80% or greater inhibition; approx. 14 days after treating; 30/21° C.
Procedure, shortened: as §1

[9] = tested on: CHEAL (common lambsquarters); experiment: Pre-emergence herbicidal activity, warm season; assay type: in vivo, Chenopodium album; details: GR80 = lowest tested rate (300, 100, 30, 10 g/ha) with 80% or greater inhibition; approx. 14 days after treating; 30/21° C.
Procedure, shortened: as §1

CONAR (field bindweed) = experiment: Pre-emergence herbicidal activity, warm season; assay type: in vivo, Convolvulus arvensis; details: GR80 = lowest tested rate (300, 100, 30, 10 g/ha) with 80% or greater inhibition; approx. 14 days after treating; 30/21° C.
Protocol: as §3, §4, §5, §6

Row | Structure (SMILES) | Pre-emergence activity GR80, SASKR (SASKR (russian thistle)) | Pre-emergence activity (GR80) AGSST [1] | Pre-emergence activity GR80, POLCO (POLCO (wild buckwheat)) | Pre-emergence activity (GR80) AVEFA (AVEFA (wild oat)) | Pre-emergence activity GR80, GALAP [2] | Pre-emergence activity GR80, STEME (STEME (common chickweed)) | Pre-emergence activity GR80, VERPE [3] | Pre-emergence activity GR80, SINAR (SINAR (wild mustard)) | Pre-emergence activity (GR80) SETVI (SETVI (green foxtail)) | Pre-emergence activity GR80, LAMPU [4] | Pre-emergence activity (GR80) PANMI [5] | Pre-emergence activity (GR80) ECHCG (ECHCG (barnyardgrass)) | Pre-emergence activity (GR80) SORHA [6] | Pre-emergence activity (GR80) SETFA (SETFA (giant foxtail)) | Pre-emergence activity (GR80) POROL (POROL (common purslane)) | Pre-emergence activity (GR80) BRAPP [8] | Pre-emergence activity (GR80) CHEAL [9] | Pre-emergence activity (GR80) CONAR (CONAR (field bindweed)) | further results
1 | CN(C)C(=O)n1cnc(S(=O)(=O)C(F)F)n1 [Example 26] | 300 g/ha | 30 g/ha | 300 g/ha | 300 g/ha | 300 g/ha | [empty] | 300 g/ha | [empty] | 300 g/ha | 300 g/ha | – | – | – | – | – | – | – | – | –
2 | COCCN(C)C(=O)n1cnc(S(=O)(=O)C(F)(F)Br)n1 [Example 40] | 300 g/ha | 30 g/ha | [empty] | – | [empty] | 300 g/ha | 100 g/ha | 100 g/ha | – | [empty] | 300 g/ha | 300 g/ha | 300 g/ha | 300 g/ha | – | – | – | – | Pre-emergence activity (GR80) BROTE (BROTE (downy brome)): 100 g/ha; Pre-emergence activity (GR80) PANDI (PANDI (fall panicum)): 300 g/ha
3 | CCCN(CC)C(=O)n1cnc(S(=O)(=O)C(F)(F)C(F)F)n1 [Example 63] | 30 g/ha | 10 g/ha | 300 g/ha | 300 g/ha | 30 g/ha | 30 g/ha | 30 g/ha | 30 g/ha | 100 g/ha | 30 g/ha | 100 g/ha | 100 g/ha | 100 g/ha | 100 g/ha | 300 g/ha | 300 g/ha | 100 g/ha | – | Pre-emergence activity (GR80) DIGSA (DIGSA (large crabgrass)): 300 g/ha; Pre-emergence activity (GR80) AMARE (AMARE (redroot pigweed)): 100 g/ha; Pre-emergence activity (GR80) ABUTH (ABUTH (velvetleaf)): 300 g/ha; Pre-emergence activity (GR80) ALOMY (ALOMY (blackgrass)): 300 g/ha; Pre-emergence activity (GR80) CIRAR [7]: 300 g/ha; Pre-emergence activity (GR80) LOLMG (LOLMG (annual ryegrass)): 100 g/ha; Pre-emergence activity (GR80) SOLNI (SOLNI (black nightshade)): 300 g/ha
4 | O=C(N1CCCC1)n1cnc(S(=O)(=O)C(F)F)n1 [Example 24] | [empty] | – | [empty] | – | [empty] | [empty] | [empty] | [empty] | – | [empty] | – | – | – | – | 100 g/ha | 100 g/ha | 300 g/ha | 300 g/ha | –
5 | CN(Cc1ccccc1)C(=O)n1cnc(S(=O)(=O)C(F)(F)Cl)n1 [Example 92] | [empty] | – | [empty] | – | [empty] | [empty] | [empty] | [empty] | – | [empty] | – | – | – | – | – | – | 300 g/ha | 300 g/ha | –

— US6461997B1, “Triazole sulfones having herbicidal activity” (Monsanto Technology LLC, priority 1999, dated 2002)
